Where a SMILES comes first, the peptide text is derived from it. [ ]: non-standard residue; d: D form. The star is where a group is joined. Gly(N-(2R-Ph-propyl)) = C[C@@H](CNCC(=O)O)c1ccccc1; Piperidin1yl(4-NH2,4-COOH) = NC1(C(=O)O)CCN(*)CC1; dGly(cPent) = N[C@@H](C(=O)O)C1CCCC1; dAla(cPr) = N[C@H](CC1CC1)C(=O)O; X1 = CC(=O)N1CC2(CCN(*)CC2)C1

For one data set, the target named is Kappa receptor (Homo sapiens (Human), UniProt P41145). Briefly: cAMP test of Kappa receptor. The class given is cell-based. The conditions noted are these: KOR cAMP cells; read-out: EC50 value of the compound to Kappa receptor. As to the method:
Experimental Embodiment 1: cAMP Test of Kappa Receptor
Experimental buffer: 1*HBSS (+/+) (SIGMA #H1387)+20 mM HEPES (LONZA #17-737E)
Stimulation buffer (STB): 200 μM IBMX (SIGMA #I7018) and 3 μM NKH477 (SIGMA #N3290) experimental buffer
Experimental Methods and Steps
The compound powder was dissolved with DMSO (Amresco #0231), and the concentration of the compound solution was 10 mM. 1 μL of the test compound was taken, and 49 μL of DMSO was added thereto, and the mixture was diluted to 200 μM of solution.
A LDV 384-well plate was taken, and the compound solution diluted in the previous step was respectively added to wells A1 to H1; a pre-prepared 200 μM of U-50488 (Tocris #0495/25) was taken and added to well P1; 10.8 μL of DMSO was added to each well of A2 to A11, […], and P2 to P11, respectively, and the mixture was centrifuged at 1000 rpm for 30 seconds.
Continuous gradient dilutions of compounds were performed with bravo, and the first column of LDV plate prepared in the previous step was taken as the initial concentration column, and 5 μL was sucked into the next column each time and blown and mixed evenly.
After the dilution was completed, 10 μL 200 μM of U-50488 was added to well A24 as HPE (100% inhibition rate activity), and 10 μL of DMSO was added to well P24 as ZPE (0% inhibition rate activity), and the mixture was centrifuged at 1000 rpm for 30 seconds.
According to the experimental layout, the compound solution diluted in the previous step was transferred to the experimental plate Corning 3824 with Echo 550, 50 nL per well.
A set of frozen KOR cAMP cells was taken from the −80° C. refrigerator and thawed in a 37° C.-water bath.
After thawing, the cells in the tube were aspirated into a 15 mL centrifuge tube, and 4 mL of experimental buffer was added thereto. […]
Cell density was counted and adjusted on a cell counter to 1.5*10^6 cells/mL. […]
Experimental plates were read with Envision.

Data set [1] in a line: Plasma protein binding rate (PPB) test, human plasma. The class given is in vitro ADME. The conditions noted are these: 2 μM, equilibrium dialysis 4 hours 37° C. As for the experimental part: (§1) To test the protein binding rate of the test compound in human and SD rat plasma.
(§2) The frozen plasma was thawed in flowing cold tap water, and then the plasma was centrifuged at 3220×g for 5 minutes to remove the suspension and precipitate. The pH of plasma was determined, and only the plasma with a pH between 7.0 to 8.0 could be used for experiments.
(§3) The experiment was used a 96-well balanced dialysis plate (HTDialysis device) to determine the plasma protein binding rate of the test compound and control compound. Before the experiment was started, the dialysis membrane was pretreated according to the description, and then the dialysis device was assembled as required. The blank plasma of human and SD rats (plasma purchased from BioreclamationIVT) was taken, and the test compound working solution or the warfarin working solution was added to make the final concentration of the test compound and warfarin in the plasma samples both 2 μM. The sample was mixed well. […] The unbound rate (Unbound) %, bound rate (Bound) % and recovery rate (Recovery) % of the compound were calculated by the following formula: % Unbound=100*FC/TC, % Bound=100−% Unbound, % Recovery=100*(FC+TC)/T0. […]

Data set [2] in a line: Plasma protein binding rate (PPB) test, SD rat plasma. Format: in vitro ADME. To be noted: 2 μM, equilibrium dialysis 4 hours 37° C. As for the experimental part:
as §1, §2, §3

The subject of the next data set is Human hepatocyte. The data set can be described thus: Metabolic stability (HMS) study in human hepatocytes. The class given is in vitro ADME. To be noted: 0.5×10^6 cells/mL. As to the method:
(§4) To test the metabolic stability of the test compound in human and rat hepatocytes.
(§5) 2.1 Test Compound (10 mM), Reference Substance: 7-Ethoxycoumarin, 30 mM, 7-Hydroxycoumarin, Reference Substance, 30 mM
(§6) Culture medium for thawing: Williams' E medium containing 5% fetal bovine serum and 30% Percoll solution and other auxiliary materials.
(§7) Culture medium for incubation: Williams' E medium (without phenol red), wherein containing 2 mM L-glutamine and 25 mM of hydroxyethyl piperazine ethanesulfonic acid.
(§8) Termination solution: acetonitrile containing 200 ng/mL of tolbutamide and labetalol as internal standard.
(§9) Dilution solution: ultrapure water. […]
(§10) The elimination rate constant k of the test compound and the control compound in hepatocyte was calculated by plotting the logarithm of the time to the residual rate, and the half-life (T1/2) and the intrinsic clearance rate in vitro (CLint) were obtained by the elimination rate constant k with the following formula: T1/2=0.693/k CLint(hep)=k/number of cells per mL(million cells/mL) CLint(liver)=CLint(hep)×ratio of liver weight to body weight×number of hepatocytes per gram of liver […]

A further data set relates to Rat hepatocyte. The data set can be described thus: Metabolic stability (HMS) study in rat hepatocytes. The class given is in vitro ADME. To be noted: 0.5×10^6 cells/mL. As to the method: as §4, §5, §6, §7, §8, §9, §10
Data set [3] is described as follows: In vivo pharmacokinetic study in SD rats. More on the design: species or system Sprague Dawley rats. To be noted: intravenous 3 mg/kg. As for the experimental part:
To test the in vivo pharmacokinetics of test compound in SD rats
Sprague Dawley rats (male, 6 to 10 weeks old, purchased from Beijing Vital River Laboratory Animal Co., LTD)
Compound 1 was mixed with normal saline to prepare a clear solution of 1 mg/mL for injection group administration, filtered by microporous membranes and ready for use. The test compound was administered intravenously at 3 mg/kg, and the solvent for intravenous administration was normal saline. Plasma samples were collected at 0, 0.083, 0.25, 0.5, 1.0, 2.0, 4.0, 8.0 and 24 hours after administration. The plasma concentration was determined by LC-MS/MS method, and the relevant pharmacokinetic parameters were calculated by non-compartmental model linear logarithmic trapezoidal method using WinNonlin™ Version 6.3 (Pharsight, Mountain View, CA) pharmacokinetic software.

Turning to `C[C@@H](CNCC(=O)N[C@H](Cc1ccccc1)C(=O)N[C@H](CC1CC1)C(=O)N[C@H](CCCCN)C(=O)N1CCC(N)(C(=O)O)CC1)c1ccccc1` [Compound 1] (H-[Gly(N-(2R-Ph-propyl))][dF][dAla(cPr)][dK]-{Piperidin1yl(4-NH2,4-COOH)}), the EC50 on Kappa receptor is 0.085 nM. Besides, in data set [1], the “Unbound rate in plasma” value was found to be 55.2%. In addition, the “Unbound rate in plasma” value in data set [2] was found to be 44.7%. The “Intrinsic clearance rate in liver” value in the data set with Human hepatocyte was under 1.07 L/h/kg. In addition, the “Intrinsic clearance rate in liver” value in the data set with Rat hepatocyte was under 1.79 L/h/kg. Moreover, in data set [3], the AUC0-last came out at 7.2 µM·h, the “Cl (total clearance rate)” value worked out at 0.594 L/h/kg, the “T1/2 (elimination half-life)” value worked out at 1.33 h and the “Vdss (steady-state apparent volume of distribution)” value is on record as 0.29 L/kg. In addition, the C0 in data set [3] (read-out: C0 (initial concentration)) worked out at 17.6 µM.
`C[C@@H](CNCC(=O)N[C@H](Cc1ccccc1)C(=O)N[C@@H](C(=O)N[C@H](CCCCN)C(=O)N1CCC(N)(C(=O)O)CC1)C1CCCC1)c1ccccc1` [Compound 2] (H-[Gly(N-(2R-Ph-propyl))][dF][dGly(cPent)][dK]-{Piperidin1yl(4-NH2,4-COOH)}): on Kappa receptor, the EC50 amounted to 0.311 nM.
Same read-out and setting: to `CC(=O)N1CC2(CCN(C(=O)[C@@H](CCCCN)NC(=O)[C@@H](CC3CC3)NC(=O)[C@@H](Cc3ccccc3)NC(=O)CNC[C@H](C)c3ccccc3)CC2)C1` [Compound 4] (H-[Gly(N-(2R-Ph-propyl))][dF][dAla(cPr)][dK]-X1) belongs 0.034 nM.
